Experimental data taken from US8148391B2 (Cephalon, Inc., priority 2006, dated 2012).
Where two headings read alike, the source gives them in different places. Each block holds one compound with its values, some of them ahead of it.

Tests used:
[1] = molecular target: T1, baculovirus-expressed ALK (Homo sapiens, UniProt Q9UM73); assay: ALK Kinase Assay (ELISA-type, time-resolved fluorescence); assay type: biochemical
T1 construct: host or cells: baculovirus expression system
Summary of the method: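 Substrate coating: phospholipase C-γ, 10 μg/mL in TBS. Kinase step: 30 ng/ml ALK, 15 min, 37° C. Detection and analysis: Eu-N1 PT66 antibody, with IC50 fitted as a sigmoidal variable-slope dose-response curve.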

[2] = molecular target: T2, c-Met (cytoplasmic domain) (Homo sapiens, UniProt P08581); assay: c-Met Kinase Assay (same methods as for ALK, with modifications); assay type: biochemical
T2 construct: 10 ng/mL c-Met (cytoplasmic domain, Invitrogen Corporation #PV3143); purchased Invitrogen Corporation PV3143
Summary of the method: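 This plate-based kinase format uses immobilized phospholipase C-γ as substrate, phosphorylated by c-Met cytoplasmic domain (10 ng/mL) at 37° C for 15 minutes.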

[3] = 1 μM ATP (Km level), read-out: ALK Activity (ALK Kinase Inhibition, IC50)
[4] = 1 μM ATP (Km level), read-out: cMet Activity (c-Met Kinase Inhibition, IC50)
[5] = ALK kinase inhibition, 1 μM ATP (Km level), read-out: ALK Activity
[6] = c-Met kinase inhibition, 1 μM ATP (Km level), read-out: cMet Activity
[7] = ALK kinase inhibition, 1 μM ATP, read-out: ALK Activity
[8] = c-Met kinase inhibition, 1 μM ATP, read-out: cMet Activity
[9] = 1 μM ATP (Km level), 30 ng/ml ALK, 37° C., 15 minutes, read-out: ALK Activity (ALK kinase inhibition, IC50 class)
[10] = 1 μM ATP (Km level), 10 ng/mL c-Met, read-out: cMet Activity (c-Met kinase inhibition, IC50 class)

T1 sequence (Q9UM73 19-1620): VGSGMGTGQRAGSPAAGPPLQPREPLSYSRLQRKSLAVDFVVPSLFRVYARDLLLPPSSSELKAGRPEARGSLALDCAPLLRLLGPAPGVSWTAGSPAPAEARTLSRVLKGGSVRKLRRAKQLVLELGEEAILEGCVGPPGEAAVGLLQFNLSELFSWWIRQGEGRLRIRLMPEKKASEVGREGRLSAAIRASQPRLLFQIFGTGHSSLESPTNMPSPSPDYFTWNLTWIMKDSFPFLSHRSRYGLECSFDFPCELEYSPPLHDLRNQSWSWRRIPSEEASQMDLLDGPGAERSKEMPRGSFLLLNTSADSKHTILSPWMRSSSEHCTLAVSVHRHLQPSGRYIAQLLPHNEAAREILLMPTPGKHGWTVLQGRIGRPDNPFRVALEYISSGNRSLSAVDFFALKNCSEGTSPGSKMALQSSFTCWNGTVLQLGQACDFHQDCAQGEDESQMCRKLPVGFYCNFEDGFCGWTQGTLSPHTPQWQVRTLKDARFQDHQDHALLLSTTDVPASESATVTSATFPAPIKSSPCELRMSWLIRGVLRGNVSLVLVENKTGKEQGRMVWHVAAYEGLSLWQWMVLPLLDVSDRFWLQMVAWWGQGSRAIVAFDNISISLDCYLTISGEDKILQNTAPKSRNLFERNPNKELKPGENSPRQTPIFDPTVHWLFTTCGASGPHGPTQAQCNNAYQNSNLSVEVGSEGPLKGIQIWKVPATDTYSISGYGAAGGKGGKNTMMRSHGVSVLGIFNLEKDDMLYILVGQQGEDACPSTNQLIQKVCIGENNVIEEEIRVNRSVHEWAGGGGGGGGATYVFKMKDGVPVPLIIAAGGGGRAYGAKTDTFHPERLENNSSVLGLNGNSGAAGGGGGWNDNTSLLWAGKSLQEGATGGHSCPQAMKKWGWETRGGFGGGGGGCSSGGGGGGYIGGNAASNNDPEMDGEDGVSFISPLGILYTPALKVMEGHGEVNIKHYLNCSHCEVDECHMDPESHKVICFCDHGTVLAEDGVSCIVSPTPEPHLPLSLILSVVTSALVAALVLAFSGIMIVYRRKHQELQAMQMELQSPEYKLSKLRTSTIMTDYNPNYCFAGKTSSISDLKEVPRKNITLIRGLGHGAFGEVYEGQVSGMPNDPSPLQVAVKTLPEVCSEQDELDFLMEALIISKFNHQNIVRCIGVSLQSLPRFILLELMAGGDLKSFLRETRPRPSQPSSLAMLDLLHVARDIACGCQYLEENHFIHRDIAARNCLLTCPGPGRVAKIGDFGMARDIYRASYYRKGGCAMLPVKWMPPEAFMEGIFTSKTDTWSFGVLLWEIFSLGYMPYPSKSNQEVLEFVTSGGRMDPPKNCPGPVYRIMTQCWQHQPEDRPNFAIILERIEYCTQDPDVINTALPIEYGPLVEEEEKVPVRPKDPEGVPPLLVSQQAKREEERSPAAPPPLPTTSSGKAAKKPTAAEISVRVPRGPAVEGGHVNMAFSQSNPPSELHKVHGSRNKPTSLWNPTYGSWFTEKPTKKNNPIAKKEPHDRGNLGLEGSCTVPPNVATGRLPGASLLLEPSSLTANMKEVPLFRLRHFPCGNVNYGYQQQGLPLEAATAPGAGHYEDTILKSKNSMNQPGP
T2 sequence (P08581 956-1390 limits assumed): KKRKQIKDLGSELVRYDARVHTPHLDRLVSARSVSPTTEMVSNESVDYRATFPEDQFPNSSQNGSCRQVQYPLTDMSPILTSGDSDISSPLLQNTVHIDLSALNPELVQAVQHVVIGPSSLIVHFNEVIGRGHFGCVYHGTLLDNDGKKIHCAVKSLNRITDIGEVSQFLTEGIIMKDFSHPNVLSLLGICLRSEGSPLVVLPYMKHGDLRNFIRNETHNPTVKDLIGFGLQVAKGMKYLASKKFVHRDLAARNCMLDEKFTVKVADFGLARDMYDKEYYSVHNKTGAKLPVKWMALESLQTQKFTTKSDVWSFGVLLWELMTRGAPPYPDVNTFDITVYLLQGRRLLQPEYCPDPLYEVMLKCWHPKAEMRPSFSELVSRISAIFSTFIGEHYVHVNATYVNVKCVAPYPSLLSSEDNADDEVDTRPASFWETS

Compound: CNC(=O)c1ccccc1Nc1nc(Nc2ccc3c(c2)CCNCC3)ncc1Cl [Example 45, 2-[5-Chloro-2-(2,3,4,5-tetrahydro-1H-benzo[d]azepin-7-ylamino)-pyrimidin-4-ylamino]-N-methyl-benzamide]
- IC50 [1, 5]: < 100 nM
- IC50 [2, 6]: < 100 nM

Compound: CCN1CCc2ccc(Nc3ncc(Cl)c(NC(C)(C)CNS(C)(=O)=O)n3)cc2CC1 [Example 307, N-{2-[5-Chloro-2-(3-ethyl-2,3,4,5-tetrahydro-1H-benzo[d]azepin-7-ylamino)-pyrimidin-4-ylamino]-2-methyl-propyl}-methanesulfonamide]
- IC50 [1, 5]: 1000 to 10000 nM
- IC50 [2, 6]: > 10000 nM

Compound: COCCOC(=O)C1[C@@H]2C=C[C@@H](C2)[C@H]1Nc1nc(Nc2ccc3c(c2OC)CC[C@@H](N2CCOCC2)CC3)ncc1Cl (single isomer, unassigned) [Example 905]
- IC50 [1, 3]: 100 to 1000 nM
- IC50 [2, 4]: > 10000 nM

Compound: CCN1C(=O)CCC(C)(C)c2ccc(Nc3ncc(Cl)c(Nc4ccccc4S(=O)(=O)N(C)C)n3)cc21 [Example 1595, 2-[5-Chloro-2-(1-ethyl-5,5-dimethyl-2-oxo-2,3,4,5-tetrahydro-1H-benzo[b]azepin-8-ylamino)-pyrimidin-4-ylamino]-N,N-dimethyl-benzenesulfonamide]
- IC50 [1, 7]: < 100 nM
- IC50 [2, 8]: < 100 nM

Compound: CC1(C)CCC(=O)Nc2ccc(Nc3ncc(Cl)c(Nc4c(F)cccc4C(=O)NCCC#N)n3)cc21 [Example 1041, 2-[5-Chloro-2-(5,5-dimethyl-2-oxo-2,3,4,5-tetrahydro-1H-benzo[b]azepin-7-ylamino)-pyrimidin-4-ylamino]-N-(2-cyano-ethyl)-3-fluoro-benzamide]
- IC50 [1, 9]: < 100 nM
- IC50 [2, 10]: 100 to 1000 nM

Compound: C=CCOc1cc(N(C)C)cc(F)c1Nc1nc(Nc2ccc3c(c2)CCOC(=O)N3C)ncc1Cl [Example 1709, 2-[4-(2-Allyloxy-4-dimethylamino-6-fluoro-phenylamino)-5-chloro-pyrimidin-2-ylamino]-5-methyl-8,9-dihydro-5H-7-oxa-5-aza-benzocyclohepten-6-one]
- IC50 [1, 7]: < 100 nM
- IC50 [2, 8]: 100 to 1000 nM

Compound: CC(C)N1CC2CCC(C1)c1cc(Nc3ncc(Cl)c(N[C@@H]4CCCC[C@H]4NS(C)(=O)=O)n3)ccc12 (stereo partly drawn) [Example 296, N-{(1R,2R)-2-[5-Chloro-2-(10-Isopropyl-10-aza-tricyclo[6.3.2.0*2,7*]trideca-2,4,6-trien-4-ylamino)-pyrimidin-4-ylamino]-cyclohexyl}-methanesulfonamide]
- IC50 [1, 5]: < 100 nM
- IC50 [2, 6]: 100 to 1000 nM

Compound: 2-[5-Chloro-2-(1-methyl-1,2,3,5-tetrahydro-benzo[e][1,4]oxazepin-7-ylamino)-pyrimidin-4-ylamino]-N-(2-hydroxy-ethyl)-benzamide and 2-{2-[5-Chloro-2-(1-methyl-1,2,3,5-tetrahydro-benzo[e][1,4]oxazepin-7-ylamino)-pyrimidin-4-ylamino]-phenyl}-oxazolidin-2-ol [Example 16]
- IC50 [1, 5]: < 100 nM
- IC50 [2, 6]: < 100 nM

Compound: CNC(=O)CN1CCc2cc(Nc3ncc(Cl)c(NC4C5C=CC(C5)C4C(N)=O)n3)c(OC)cc2CC1 (stereo not drawn) [Example 1117, (2-exo,3-exo)-3-[5-Chloro-2-(8-methoxy-3-methylcarbamoylmethyl-2,3,4,5-tetrahydro-1H-benzo[d]azepin-7-ylamino)-pyrimidin-4-ylamino]-bicyclo[2.2.1]hept-5-ene-2-carboxylic acid amide]
- IC50 [1, 9]: < 100 nM
- IC50 [2, 10]: > 10000 nM

Compound: CC(C)S(=O)(=O)c1cccc(F)c1Nc1nc(Nc2ccc3c(c2)NC(=O)CCC3(C)C)ncc1Cl [Example 1251, 8-{5-Chloro-4-[2-fluoro-6-(propane-2-sulfonyl)-phenylamino]-2-ylamino}-5,5-dimethyl-1,3,4,5-tetrahydro-1-benzazepin-2-one]
- IC50 [1, 9]: 100 to 1000 nM
- IC50 [2, 10]: 1000 to 10000 nM

Compound: C#CCNC(=O)c1cccc(F)c1Nc1nc(Nc2ccc3c(c2)CCN(C(=O)C2COCCO2)CC3)ncc1Cl (stereo not drawn) [Example 640, 2-{5-Chloro-2-[3-([1,4]dioxane-2-carbonyl)-2,3,4,5-tetrahydro-1H-benzo[d]azepin-7-ylamino]-pyrimidin-4-ylamino}-3-fluoro-N-prop-2-ynyl-benzamide]
- IC50 [1, 3]: 100 to 1000 nM
- IC50 [2, 4]: < 100 nM

Compound: COCCN1CCc2ccc(Nc3ncc(Cl)c(N[C@@H]4CCC[C@@H](NS(C)(=O)=O)C4)n3)cc2CC1 (relative stereo) [Example 1379, rel-N-((1R,3R)-3-{5-Chloro-2-[3-(2-methoxy-ethyl)-2,3,4,5-tetrahydro-1H-benzo[d]azepin-7-ylamino]-pyrimidin-4-ylamino}-cyclohexyl)-methanesulfonamide]
- IC50 [1, 9]: 1000 to 10000 nM
- IC50 [2, 10]: 1000 to 10000 nM

Compound: CNC(=O)c1cccc(Cl)c1Nc1nc(Nc2ccc3c(c2)-n2ccnc2CCC3)ncc1Cl [Example 1839, 2-[5-Chloro-2-(5,6-dihydro-4H-3,10b-diaza-benzo[e]azulen-9-ylamino)-pyrimidin-4-ylamino]-3-chloro-N-methyl-benzamide]
- IC50 [1, 7]: 1000 to 10000 nM
- IC50 [2, 8]: 100 to 1000 nM

The remaining lines, values ahead:

- IC50 [1, 3]: 1000 to 10000 nM
- IC50 [2, 4]: > 10000 nM
Compound: COc1ccc(Nc2ncc(Cl)c(Nc3ccccc3S(=O)(=O)N(C)C)n2)c2c1CCCC(N1CCOCC1)C2 (stereo not drawn) [Example 945, 2-[5-Chloro-2-(4-methoxy-8-morpholin-4-yl-6,7,8,9-tetrahydro-5H-benzocyclohepten-1-ylamino)-pyrimidin-4-ylamino]-N,N-dimethyl-benzenesulfonamide]

- IC50 [1, 5]: < 100 nM
- IC50 [2, 6]: 1000 to 10000 nM
Compound: CNC(=O)c1ccccc1Nc1nc(Nc2ccc3c(c2OC)CCCC(=O)N3C)ncc1Cl [Example 116, 2-[5-Chloro-2-(6-methoxy-1-methyl-2-oxo-2,3,4,5-tetrahydro-1H-benzo[b]azepin-7-ylamino)-pyrimidin-4-ylamino]-N-methyl-benzamide]

- IC50 [1, 7]: < 100 nM
- IC50 [2, 8]: 100 to 1000 nM
Compound: CNC(=O)c1ccccc1Nc1nc(Nc2cc3c(cc2OC)N(C)C(=O)OCC3)ncc1Br [Example 1507, 2-[5-Bromo-2-(3-methoxy-5-methyl-6-oxo-5,6,8,9-tetrahydro-7-oxa-5-aza-benzocyclohepten-2-ylamino)-pyrimidin-4-ylamino]-N-methyl-benzamide]

- IC50 [1, 5]: < 100 nM
- IC50 [2, 6]: > 10000 nM
Compound: CCN1CCc2cc(Nc3ncc(Cl)c(N[C@@H]4CCCC[C@H]4NS(C)(=O)=O)n3)c(OC)cc2CC1=O [Example 251, N-{(1R,2R)-2-[5-Chloro-2-(3-ethyl-8-methoxy-2-oxo-2,3,4,5-tetrahydro-1H-benzo[d]azepin-7-ylamino)-pyrimidin-4-ylamino]-cyclohexyl}-methanesulfonamide]

- IC50 [1, 9]: < 100 nM
- IC50 [2, 10]: > 10000 nM
Compound: CNC(=O)CN1CCc2cc(Nc3ncc(Cl)c(N[C@@H]4CCCC[C@H]4NS(C)(=O)=O)n3)c(OC)cc2CC1 [Example 1112, 2-{7-[5-Chloro-4-((1R,2R)-2-methanesulfonylamino-cyclohexylamino)-pyrimidin-2-ylamino]-8-methoxy-1,2,4,5-tetrahydro-benzo[d]azepin-3-yl}-N-methyl-acetamide]

- IC50 [1, 3]: 100 to 1000 nM
- IC50 [2, 4]: > 10000 nM
Compound: CCN1C(=O)CCCc2c1ccc(Nc1ncc(Cl)c(NC3C4C=CC(C4)C3C(=O)N(C)C)n1)c2OC (stereo not drawn) [Example 602, (2-exo-3-exo)-3-[5-Chloro-2-(1-ethyl-6-methoxy-2-oxo-2,3,4,5-tetrahydro-1H-benzo[b]azepin-7-ylamino)-pyrimidin-4-ylamino]-bicyclo[2.2.1]hept-5-ene-2-carboxylic acid dimethylamide]

- IC50 [1, 9]: 100 to 1000 nM
- IC50 [2, 10]: 1000 to 10000 nM
Compound: CCN1C(=O)CCCc2ccc(Nc3ncc(Cl)c(Nc4ccc(OCC#N)cc4)n3)cc21 [Example 1226, {4-[5-Chloro-2-(1-ethyl-2-oxo-2,3,4,5-tetrahydro-1H-1-benzazepin-8-ylamino)-pyrimidin-4-ylamino]-phenoxy}-acetonitrile]

- IC50 [1, 7]: < 100 nM
- IC50 [2, 8]: > 10000 nM
Compound: COc1cc2c(cc1Nc1ncc(Cl)c(N[C@H]3[C@@H](C(N)=O)[C@@H]4C=C[C@H]3C4)n1)CCN(CC(=O)N1CCN(C)CC1)CC2 [Example 1539, (1S,2S,3R,4R)-3-(5-Chloro-2-{8-methoxy-3-[2-(4-methyl-piperazin-1-yl)-2-oxo-ethyl]-2,3,4,5-tetrahydro-1H-3-benzazepin-7-ylamino}-pyrimidin-4-ylamino)-bicyclo[2.2.1]hept-5-ene-2-carboxylic acid amide]

- IC50 [1, 3]: < 100 nM
- IC50 [2, 4]: 1000 to 10000 nM
Compound: CC1(C)CCC(=O)Nc2ccc(Nc3ncc(Cl)c(Nc4ccccc4-c4cnccn4)n3)cc21 [Example 975]

- IC50 [1, 9]: < 100 nM
- IC50 [2, 10]: 1000 to 10000 nM
Compound: CNC(=O)CN1CCc2cc(Nc3ncc(Cl)c(Nc4c(F)cccc4C(=O)NC)n3)c(OC)cc2CC1 [Example 1116, 2-[5-Chloro-2-(8-methoxy-3-methylcarbamoylmethyl-2,3,4,5-tetrahydro-1H-benzo[d]azepin-7-ylamino)-pyrimidin-4-ylamino]-3-fluoro-N-methyl-benzamide]

- IC50 [1, 3]: < 100 nM
- IC50 [2, 4]: 1000 to 10000 nM
Compound: COc1cc(N2CCOCC2)ccc1Nc1nc(Nc2ccc3c(c2)CCC(N2CCOCC2)CC3)ncc1Cl (stereo not drawn) [Example 865, 5-Chloro-N*4*-(2-methoxy-4-morpholin-4-yl-phenyl)-N*2*-(7-morpholin-4-yl-6,7,8,9-tetrahydro-5H-benzocyclohepten-2-yl)-pyrimidine-2,4-diamine]
